Reference: ChEMBL document CHEMBL1122397, “Synthesis and pharmacological characterization of (+/-)-5,9 alpha-dimethyl-2-[2-(4-fluorophenyl)ethyl]-2'-hydroxy-6,7-benzomorphan (fluorophen), a ligand suitable for visualization of opiate receptors in vivo” (J Med Chem, 1983)

Assays:
[1] = organism: Mus musculus; test: cells; settings: Rattus norvegicus, Brain, 3 h
[2] = target: Opioid receptor (Rattus norvegicus, UniProt P33533+P34975+P33535); test: (§1) Ability to displace 50% of (+/-) ethylketocyclazocine (2.8) in rat brain homogenate; assay type: tissue-based
[3] = target: Mu-type opioid receptor (Cavia porcellus) (UniProt P97266); test: Relative potency to induce 50% of maximal effect in guinea pig ileum expressing Opioid receptor mu 1; assay type: tissue-based
[4] = target: T1, Kappa-type opioid receptor (Homo sapiens, UniProt P41145); test: Relative potency to induce 50% of maximal effect in rabbit vas deferens expressing Opioid receptor kappa 1; settings: Oryctolagus cuniculus
[5] = target: T1, Kappa-type opioid receptor; test: Ability to induce 50% of maximal effect in rabbit vas deferens expressing Opioid receptor kappa 1; assay type: tissue-based, Oryctolagus cuniculus
[6] = target: Mu-type opioid receptor (Cavia porcellus, UniProt P97266); test: Ability to induce 50% of maximal effect in guinea pig ileum expressing Opioid receptor mu 1; assay type: tissue-based
[7] = organism: Rattus norvegicus; test: Ability to displace 50% of (-) naloxone(1.0) in rat brain homogenate
[8] = organism: Rattus norvegicus; test: Ability to displace 50% of [3H]- labeled DADLE in rat brain homogenate
[9] = organism: Rattus norvegicus; test: Relative potency in displacing (-) naloxone(1.0) in rat brain homogenate
[10] = organism: Rattus norvegicus; test: Relative potency in displacing [3H]- labeled DADLE in rat brain homogenate
[11] = organism: Rattus norvegicus; test: Relative potency in displacing ((+/-) ethylketocyclazocine (2.8)) in rat brain homogenate
[12] = organism: Rattus norvegicus; test: as §1
[13] = target: Delta-type opioid receptor (Mus musculus) (UniProt P32300); test: Relative potency to induce 50% of maximal effect in mouse vas deferens expressing Opioid receptor delta 1
Delta-type opioid receptor (Mus musculus), sequence (P32300 whole entry, looked up): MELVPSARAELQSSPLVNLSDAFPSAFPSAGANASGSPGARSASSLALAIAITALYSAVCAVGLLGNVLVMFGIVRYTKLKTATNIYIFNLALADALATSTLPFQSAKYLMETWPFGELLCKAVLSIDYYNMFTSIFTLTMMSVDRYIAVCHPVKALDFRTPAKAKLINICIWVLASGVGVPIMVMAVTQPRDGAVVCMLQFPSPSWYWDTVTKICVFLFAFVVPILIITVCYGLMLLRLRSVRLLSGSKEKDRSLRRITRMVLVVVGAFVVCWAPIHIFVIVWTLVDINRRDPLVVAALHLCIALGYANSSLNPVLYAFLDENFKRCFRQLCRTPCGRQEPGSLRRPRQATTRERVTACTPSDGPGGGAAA

T1 sequence (P41145 whole entry): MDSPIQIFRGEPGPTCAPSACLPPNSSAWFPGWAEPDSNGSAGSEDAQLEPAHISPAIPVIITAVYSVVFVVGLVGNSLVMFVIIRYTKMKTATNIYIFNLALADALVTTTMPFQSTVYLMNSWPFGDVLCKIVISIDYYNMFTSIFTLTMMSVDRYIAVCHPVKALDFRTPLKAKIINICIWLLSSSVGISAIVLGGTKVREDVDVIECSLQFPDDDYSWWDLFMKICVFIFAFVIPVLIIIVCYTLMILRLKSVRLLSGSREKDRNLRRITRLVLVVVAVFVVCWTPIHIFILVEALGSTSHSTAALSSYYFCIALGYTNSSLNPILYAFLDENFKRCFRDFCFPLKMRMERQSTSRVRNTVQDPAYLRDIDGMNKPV
Mu-type opioid receptor (Cavia porcellus), sequence (P97266 whole entry): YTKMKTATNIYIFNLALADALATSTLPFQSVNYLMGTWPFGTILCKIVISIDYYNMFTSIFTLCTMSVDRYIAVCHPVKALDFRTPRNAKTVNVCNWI
Mu-type opioid receptor, sequence (P97266 whole entry): as above

CC(C)C[C@H](NC(=O)[C@H](Cc1ccccc1)NC(=O)CNC(=O)CNC(=O)[C@@H](N)Cc1ccc(O)cc1)C(=O)O [ENKEPHALIN]
IC50 [1]: 11 nM

CC[C@@]12CCN(CC3CC3)C(C(=O)c3ccc(O)cc31)[C@@H]2C [ETHYLKETOCYCLAZOCINE]
IC50 [2]: 8.4 nM

CC1C2Cc3ccc(O)cc3C1(C)CCN2CCc1ccccc1 (stereo not drawn) [PHENAZOCINE]
Relative Potency [3]: 7.9 | Relative Potency [4]: 0.4 | IC50 [5]: 121 nM | IC50 [6]: 9.8 nM | IC50 [7]: 82 nM | IC50 [8]: 26 nM | Relative Potency [9]: 2.4 | Relative Potency [10]: 0.42 | Relative Potency [11]: 0.13 | IC50 [12]: 65 nM | Relative Potency [13]: 1.2
